Results as given in patent US9538774B2, “Method of feeding livestock to improve carcass characteristics” (Value-Added Science & Technology, LLC., priority 2012, dated 2017).
“Also recorded” adds a separate entry of the source.

What was measured:
[1] = system: commercial finishing pigs; assay: Example 2 feeding study: CPFA with and without ractopamine in a 40% DDGS diet; assay type: in vivo
Description: A second study was conducted to evaluate the effects of supplementation of CPFA, with and without ractopamine, in a diet containing a high level (40%) of DDGS, on growth performance, carcass characteristics, meat and fat quality in commercial finishing pigs. The experimental diets over a six-week feeding period were a control diet without CPFA and a diet containing 0.0375% CPFA for six weeks; then for the last three weeks a diet was fed that included ractopamine at 4.5 grams per ton for each of the control and CPFA diets. (See FIG. 4). CPFA was added to replace choice white grease in the control diet. As discussed below, no treatment effects on growth performance were observed nor for HCW, dressing percentage or loin muscle, ultimate pH, color or marbling.
Pig body weight (BW) on a pen basis was measured initially and at the end of weeks 3 and 6 to calculate average daily gain (ADG). On each weigh day, feed disappearance was measured to calculate average daily feed intake (ADFI) of pigs on pen basis. Pen ADG and ADFI were, in turn, used to calculate feed conversion ratio (F:G).
Pigs were all harvested on the same day and also weighed individually one day before harvest to obtain a final live BW. HCW was measured on carcasses immediately after harvest. Live BW and HCW of pigs were used to calculate dressing percentage using the following equation: dressing %=(HCW/live BW)×100. Backfat (BF) and loin depth (LD) were measured between the 3rd and 4th rib on each carcass using Fat-O-Meater (Generation II). Percentage of fat-free carcass lean was calculated by Fat-O-Meater using the values of backfat depth and loin depth.
One barrow and one gilt from each pen weighing closest to the mean BW of their pen were selected for evaluation of meat and belly fat quality. Twenty-four hours after carcasses were chilled at 4° C., pH of loin muscle (LM) was measured at the 10th rib using a pH meter. The pH meter was calibrated at the temperature of the LM with pH 4 and 7 buffers. After pH measurement, carcasses were fabricated. Loin muscle samples at the 10th rib were collected for evaluation of meat quality.
Each LM sample was separated into two equal halves, and vacuum-packaged and frozen at −20° C. until analysis. One section of LM sample was measured for Minolta color (L*: lightness; a*: redness; b*: yellowness), loin purge, chop purge, and Instron force (a measurement correlated with tenderness and chewiness). Japanese color score (1=extremely pale to 6=extremely dark; NPPC, 2000) and marbling score (1=1% intramuscular fat to 10=10% intramuscular fat; NPPC, 2000) were also determined by trained panelists.
The other section of the LM sample was used for sensory evaluation. Sensory assessment was performed according to the procedure described by the American Meat Science Association (1995). Samples of LM were thawed at 4° C. overnight and cut into chops approximately 1 inch thick. The chops were weighed before and immediately after cooking to determine cooking loss. After cooking, trained panelists evaluated chops for juiciness, tenderness, chewiness, flavor and off-flavor using a 10-point scale (1=extremely dry, tough, not chewy, none, or none, to 10=extremely juicy, tender, chewy, intense, or intense, respectively). […]
To determine the CPFA residue in carcass fat, each of 6 (3 barrows, 3 gilts) belly fat samples from the third section were randomly selected in control and experimental treatments. Samples were sent for analysis of individual CPFA using HPLC according to the method described by Wood (1986).
All data were analyzed using the MIXED procedure of SAS Inst. Inc. (Cary, N.C.). Pen was used as the experimental unit for all responses. The statistical model included the fixed effects of CPFA, ractopamine, CPFA×ractopamine interactions, and random effect of block. Live BW before harvest and sex were used as the covariates in analysis of carcass characteristics, meat and fat quality, if the effects of these covariates were significant (P<0.05). […]

[2] = system: swine; settings: cited from earlier work
[3] = 40% DDGS diet, CPFA 0.0375% six weeks, ractopamine 4.5 grams per ton last three weeks
[4] = loin muscle, ractopamine 4.5 grams/ton
[5] = ractopamine 4.5 grams per ton last three weeks
[6] = sensory panel, 10-point scale, each additive alone
[7] = sensory panel, ractopamine 4.5 grams/ton
[8] = 10 or 20 ppm for 25 to 41 days pre-slaughter (Carr et. al., 2005)
[9] = 10 ppm for 28 days (Stoller et. al., 2003)
[10] = 10 ppm for 35 days prior to slaughter (Aalhus, et. al., 1990)

With CC(CCc1ccc(O)cc1)NCC(O)c1ccc(O)cc1 (centres unmarked) [ractopamine] the “average daily feed intake (ADFI)” value [1, 3] was “affected”, the “average daily gain (ADG)” value [1, 3] was “affected; also recorded: statistically significant positive effects” and the “feed conversion ratio (F:G)” value [1, 3] was “statistically significant positive effects”. For the same compound, the “weight at harvest (final BW)” value [1, 3] was “affected; also recorded: statistically significant positive effects”, the “Instron force of LM samples” value ([1]; loin muscle, CPFA 0.0375% six weeks, ractopamine 4.5 grams/ton) was “did affect; also recorded: increase” and the “lightness of LM” value [1, 4] was “did affect”. For the same compound, the “redness (Minolta a*) of LM” value [1, 4] was “did affect; also recorded: reductions”, the “yellowness (Minolta b*) of LM” value [1, 4] was “did affect; also recorded: reductions” and the back fat [1, 5] was “reduction”. The “increase of the measure of carcass lean” value [1, 5] was 2%, the loin depth [1, 5] was “increase” and the carcass lean % ([1]; ractopamine 4.5 grams/ton, effect in words) was “statistically significant positive effects”. For the same compound, the juiciness score [1, 6] was “Neither CPFA nor ractopamine alone affected”, the off-flavor score [1, 6] was “Neither CPFA nor ractopamine alone affected” and the chewiness [1, 7] was “increased”. For the same compound, the flavor score [1, 7] was “reduction”, the tenderness [1, 7] was “reduced” and the color scores [2, 8] was “poorer”. For the same compound, the flavor scores [2, 8] was “reduced”, the tenderness [2, 8] was “reduced” and the “Instron force of loin muscle” value [2, 9] was “increased”. For the same compound, the chewiness score [2, 9] was “increased”, the color score [2, 9] was “reduced” and the tenderness score [2, 9] was “reduced”. For the same compound, the “hardness of fat samples taken from the loin” value [2, 10] was “reduced” and the “sheer force of loin muscle” value [2, 10] was “increased”.
